The experiment concerns the target Thromboxane-A synthase (Rattus norvegicus). In words: Tested for inhibition of thromboxane Synthetase from spontaneously hypertensive rats.

As for `CC(Cn1ccnc1)Cn1c(=O)[nH]c2cc(Cl)ccc2c1=O` (stereo unspecified), it took 10 nM to reach half-maximal inhibition (IC50).

These data come from BindingDB's records for doi:10.1021/jm00395a016 (Medical Research Division of American Cyanamid, 1988).
